# Earlier results in PMC5766731 (Clinical Pharmacokinetics, 2017).
# Settings: cited from earlier work
structure (smiles),measurement,setting,value
O=C(O)CNC(=O)c1ncc(-c2cccc(Cl)c2)cc1O [vadadustat],pharmacokinetics in CKD patients (stages 3 and 4),,not found to be significantly altered
same,"renal CL mechanisms, share of the radioactive dose",healthy subjects,approximately 59%
